Consider 27 molecules from patent US20140155376A1, “PYRROLOPYRAZINE KINASE INHIBITORS” (Hoffmann-La Roche Inc., priority 2010, published 2014).

The assay has as its target T1, JAK3 (recombinant human kinase domain; h-jak3(810-1124)) (Homo sapiens, UniProt P52333).
T1 construct: h-jak3(810- 1124)-sf9-c; made in house; host or cells: Sf9 insect cells
In words: Determination of IC50 of Janus Kinase (JAK) inhibition: JAK3, radioactive end-point assay with 33P-ATP. Particulars: JAK3 kinase domain; ATP 1.5 uM, peptide 50 uM, 20 minutes, room temperature, 10% DMSO; read-out: Ic50 h-jak3(810-1124)-sf9-c:no additive. In kind it is biochemical.

T1 sequence (P52333 810-1124): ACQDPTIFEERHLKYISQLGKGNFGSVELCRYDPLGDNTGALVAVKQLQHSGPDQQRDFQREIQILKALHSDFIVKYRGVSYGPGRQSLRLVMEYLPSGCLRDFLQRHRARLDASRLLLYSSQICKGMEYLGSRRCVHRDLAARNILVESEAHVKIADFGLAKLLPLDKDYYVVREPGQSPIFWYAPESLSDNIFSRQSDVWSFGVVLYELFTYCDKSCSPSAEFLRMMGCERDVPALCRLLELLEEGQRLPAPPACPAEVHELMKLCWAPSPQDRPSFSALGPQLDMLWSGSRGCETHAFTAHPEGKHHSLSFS

Turning to `C[C@H](Cc1cnc[nH]1)NC(=O)c1ccc(-c2cnc3[nH]cc(C(=O)N[C@@H](C)C(C)(C)C)c3n2)s1` [Example I-199, 2-{5-[(R)-2-(3H-Imidazol-4-yl)-1-methyl-ethylcarbamoyl]-thiophen-2-yl}-5H-pyrrolo[2,3-b]pyrazine-7-carboxylic acid ((S)-1,2,2-trimethyl-propyl)-amide], the concentration for half-maximal inhibition (IC50) was 0.65 nM.

For `C[C@H](NC(=O)c1c[nH]c2ncc(-c3ccc(C(=O)Nc4ccc5c(c4)CCCC5)s3)nc12)C(C)(C)C` [Example I-200, 2-[5-(5,6,7,8-Tetrahydro-naphthalen-2-ylcarbamoyl)-thiophen-2-yl]-5H-pyrrolo[2,3-b]pyrazine-7-carboxylic acid ((S)-1,2,2-trimethyl-propyl)-amide], the concentration for half-maximal inhibition (IC50) came to 0.73 nM.

On to `C[C@H](NC(=O)c1c[nH]c2ncc(-c3ccc(C(=O)Nc4ccccc4)s3)nc12)C(C)(C)C` [Example I-201, 2-(5-Phenylcarbamoyl-thiophen-2-yl)-5H-pyrrolo[2,3-b]pyrazine-7-carboxylic acid ((S)-1,2,2-trimethyl-propyl)-amide], for which the IC50 amounted to 0.57 nM.

For `Cc1ccc([C@@H](C)NC(=O)c2ccc(-c3cnc4[nH]cc(C(=O)N[C@@H](C)C(C)(C)C)c4n3)s2)cc1` [Example I-202, 2-[5-((R)-1-p-Tolyl-ethylcarbamoyl)-thiophen-2-yl]-5H-pyrrolo[2,3-b]pyrazine-7-carboxylic acid ((S)-1,2,2-trimethyl-propyl)-amide], the concentration for half-maximal inhibition (IC50) stood at 0.52 nM.

In the case of `COc1ccccc1CNC(=O)c1ccc(-c2cnc3[nH]cc(C(=O)N[C@@H](C)C(C)(C)C)c3n2)s1` [Example I-203, 2-[5-(2-Methoxy-benzylcarbamoyl)-thiophen-2-yl]-5H-pyrrolo[2,3-b]pyrazine-7-carboxylic acid ((S)-1,2,2-trimethyl-propyl)-amide], the half-maximal inhibitory concentration (IC50) was determined as 0.4 nM.

In the case of `COc1ccc(OC)c(CNC(=O)c2ccc(-c3cnc4[nH]cc(C(=O)N[C@@H](C)C(C)(C)C)c4n3)s2)c1` [Example I-204, 2-[5-(2,5-Dimethoxy-benzylcarbamoyl)-thiophen-2-yl]-5H-pyrrolo[2,3-b]pyrazine-7-carboxylic acid ((S)-1,2,2-trimethyl-propyl)-amide], the IC50 was 0.56 nM.

In the case of `C[C@H](NC(=O)c1c[nH]c2ncc(-c3ccc(C(=O)N(C)Cc4ccc(F)cc4)s3)nc12)C(C)(C)C` [Example I-205, 2-{5-[(4-Fluoro-benzyl)-methyl-carbamoyl]-thiophen-2-yl}-5H-pyrrolo[2,3-b]pyrazine-7-carboxylic acid ((S)-1,2,2-trimethyl-propyl)-amide], the IC50 is 0.76 nM.

In the case of `COc1cccc(CNC(=O)c2ccc(-c3cnc4[nH]cc(C(=O)N[C@@H](C)C(C)(C)C)c4n3)s2)c1` [Example I-206, 2-[5-(3-Methoxy-benzylcarbamoyl)-thiophen-2-yl]-5H-pyrrolo[2,3-b]pyrazine-7-carboxylic acid ((S)-1,2,2-trimethyl-propyl)-amide], the IC50 was determined as 0.32 nM.

As to `C[C@H](NC(=O)c1c[nH]c2ncc(-c3ccc(C(=O)NCc4cccc(C(F)(F)F)c4)s3)nc12)C(C)(C)C` [Example I-207, 2-[5-(3-Trifluoromethyl-benzylcarbamoyl)-thiophen-2-yl]-5H-pyrrolo[2,3-b]pyrazine-7-carboxylic acid ((S)-1,2,2-trimethyl-propyl)-amide], the half-maximal inhibitory concentration (IC50) amounted to 0.73 nM.

On to `C[C@H](NC(=O)c1c[nH]c2ncc(-c3ccc(C(=O)N[C@H](C)C(C)(C)C)s3)nc12)C(C)(C)C` [Example I-209, 2-[5-((R)-1,2,2-Trimethyl-propylcarbamoyl)-thiophen-2-yl]-5H-pyrrolo[2,3-b]pyrazine-7-carboxylic acid ((S)-1,2,2-trimethyl-propyl)-amide], for which the half-maximal inhibitory concentration (IC50) worked out at 0.47 nM.

Regarding `C[C@H](NC(=O)c1c[nH]c2ncc(-c3ccc(C(=O)NCC(C)(C)C)s3)nc12)C(C)(C)C` [Example I-210, 2-[5-(2,2-Dimethyl-propylcarbamoyl)-thiophen-2-yl]-5H-pyrrolo[2,3-b]pyrazine-7-carboxylic acid ((S)-1,2,2-trimethyl-propyl)-amide], the half-inhibitory concentration (IC50) amounted to 0.71 nM.

For the molecule `C[C@H](CS(C)(=O)=O)NC(=O)c1ccc(-c2cnc3[nH]cc(C(=O)N[C@@H](C)C(C)(C)C)c3n2)s1` [Example I-211, 2-[5-((R)-2-Methanesulfonyl-1-methyl-ethylcarbamoyl)-thiophen-2-yl]-5H-pyrrolo[2,3-b]pyrazine-7-carboxylic acid ((S)-1,2,2-trimethyl-propyl)-amide], the IC50 is 0.22 nM.

`C[C@H](NC(=O)c1c[nH]c2ncc(-c3ccc(C(=O)NC4CCS(=O)(=O)CC4)s3)nc12)C(C)(C)C` [Example I-212, 2-[5-(1,1-Dioxo-hexahydro-1λ^6-thiopyran-4-ylcarbamoyl)-thiophen-2-yl]-5H-pyrrolo[2,3-b]pyrazine-7-carboxylic acid ((S)-1,2,2-trimethyl-propyl)-amide]: the half-maximal inhibitory concentration (IC50) came to 0.16 nM.

For `C[C@H](NC(=O)c1c[nH]c2ncc(-c3ccc(C(=O)N4CCS(=O)(=O)CC4)s3)nc12)C(C)(C)C` [Example I-213, 2-[5-(1,1-Dioxo-1λ^6-thiomorpholine-4-carbonyl)-thiophen-2-yl]-5H-pyrrolo[2,3-b]pyrazine-7-carboxylic acid ((S)-1,2,2-trimethyl-propyl)-amide], the IC50 came to 0.11 nM.

As to `COCC(C)NC(=O)c1ccc(-c2cnc3[nH]cc(C(=O)N[C@@H](C)C(C)(C)C)c3n2)s1` (stereo partly drawn) [Example I-214, 2-[5-(2-Methoxy-1-methyl-ethylcarbamoyl)-thiophen-2-yl]-5H-pyrrolo[2,3-b]pyrazine-7-carboxylic acid ((S)-1,2,2-trimethyl-propyl)-amide], the IC50 was found to be 0.28 nM.

With `C[C@H](NC(=O)c1c[nH]c2ncc(-c3ccc(C(N)=O)s3)nc12)C(C)(C)C` [Example I-215, 2-(5-Carbamoyl-thiophen-2-yl)-5H-pyrrolo[2,3-b]pyrazine-7-carboxylic acid ((S)-1,2,2-trimethyl-propyl)-amide], the IC50 was found to be 0.21 nM.

As to `C[C@H](NC(=O)c1c[nH]c2ncc(-c3ccc(C(=O)NCCC(F)(F)F)s3)nc12)C(C)(C)C` [Example I-216, 2-[5-(3,3,3-Trifluoro-propylcarbamoyl)-thiophen-2-yl]-5H-pyrrolo[2,3-b]pyrazine-7-carboxylic acid ((S)-1,2,2-trimethyl-propyl)-amide], the IC50 came to 0.18 nM.

Take `C[C@H](NC(=O)c1c[nH]c2ncc(-c3ccc(C(=O)N4CC5(COC5)C4)s3)nc12)C(C)(C)C` [Example I-217, 2-[5-(2-Oxa-6-aza-spiro[3.3]heptane-6-carbonyl)-thiophen-2-yl]-5H-pyrrolo[2,3-b]pyrazine-7-carboxylic acid ((S)-1,2,2-trimethyl-propyl)-amide]: the IC50 was 0.11 nM.

For the molecule `C[C@H](NC(=O)c1c[nH]c2ncc(-c3ccc(C(=O)N4CC(CO)(CO)C4)s3)nc12)C(C)(C)C` [Example I-218, 2-[5-(3,3-Bis-hydroxymethyl-azetidine-1-carbonyl)-thiophen-2-yl]-5H-pyrrolo[2,3-b]pyrazine-7-carboxylic acid ((S)-1,2,2-trimethyl-propyl)-amide], the 50% inhibitory concentration (IC50) was determined as 0.13 nM.

As for `Cc1cc(-c2cnc3[nH]cc(C(=O)N[C@@H](C)C(C)(C)C)c3n2)sc1C(=O)NC1CCOCC1` [Example I-219, 2-[4-Methyl-5-(tetrahydro-pyran-4-ylcarbamoyl)-thiophen-2-yl]-5H-pyrrolo[2,3-b]pyrazine-7-carboxylic acid ((S)-1,2,2-trimethyl-propyl)-amide], the IC50 came to 0.24 nM.

For the molecule `Cc1cc(-c2cnc3[nH]cc(C(=O)N[C@@H](C)C(C)(C)C)c3n2)sc1C(=O)N1CCS(=O)(=O)CC1` [Example I-220, 2-[5-(1,1-Dioxo-1λ^6-thiomorpholine-4-carbonyl)-4-methyl-thiophen-2-yl]-5H-pyrrolo[2,3-b]pyrazine-7-carboxylic acid ((S)-1,2,2-trimethyl-propyl)-amide], the IC50 was determined as 0.23 nM.

In the case of `Cc1cc(-c2cnc3[nH]cc(C(=O)N[C@@H](C)C(C)(C)C)c3n2)sc1C(=O)N1CC2(COC2)C1` [Example I-221, 2-[4-Methyl-5-(2-oxa-6-aza-spiro[3.3]heptane-6-carbonyl)-thiophen-2-yl]-5H-pyrrolo[2,3-b]pyrazine-7-carboxylic acid ((S)-1,2,2-trimethyl-propyl)-amide], the IC50 came to 0.08 nM.

For `Cc1cc(-c2cnc3[nH]cc(C(=O)N[C@@H](C)C(C)(C)C)c3n2)sc1C(=O)N1CC(CO)(CO)C1` [Example I-222, 2-[5-(3,3-Bis-hydroxymethyl-azetidine-1-carbonyl)-4-methyl-thiophen-2-yl]-5H-pyrrolo[2,3-b]pyrazine-7-carboxylic acid ((S)-1,2,2-trimethyl-propyl)-amide], the IC50 is 0.11 nM.

In the case of `C[C@H](NC(=O)c1c[nH]c2ncc(-c3ccc(C(=O)NC4CCOCC4)s3)nc12)C(C)(C)C#N` [Example I-223, 2-[5-(Tetrahydro-pyran-4-ylcarbamoyl)-thiophen-2-yl]-5H-pyrrolo[2,3-b]pyrazine-7-carboxylic acid ((S)-2-cyano-1,2,2-trimethyl-ethyl)-amide], the IC50 worked out at 0.91 nM.

On to `C[C@H](NC(=O)c1c[nH]c2ncc(-c3ccc(C(=O)N4CCCCC4)s3)nc12)C(C)(C)C#N` [Example I-224, 2-[5-(Piperidine-1-carbonyl)-thiophen-2-yl]-5H-pyrrolo[2,3-b]pyrazine-7-carboxylic acid ((S)-2-cyano-1,2,2-trimethyl-ethyl)-amide], for which the IC50 turned out to be 0.36 nM.

As for `C[C@H](NC(=O)c1c[nH]c2ncc(-c3ccc(C(=O)NC4CCOCC4)s3)nc12)C(C)(C)C` [Example I-225, 2-[5-(Tetrahydro-pyran-4-ylcarbamoyl)-thiophen-2-yl]-5H-pyrrolo[2,3-b]pyrazine-7-carboxylic acid ((S)-1,2,2-trimethyl-propyl)-amide], the IC50 is 0.19 nM.

`C[C@H](NC(=O)c1c[nH]c2ncc(-c3ccc(C(=O)NCc4ccccc4)s3)nc12)C(C)(C)C` [Example I-226, 2-(5-Benzylcarbamoyl-thiophen-2-yl)-5H-pyrrolo[2,3-b]pyrazine-7-carboxylic acid ((S)-1,2,2-trimethyl-propyl)-amide]: the IC50 was 0.5 nM.

Usually IC50 stands for the midpoint of a concentration-inhibition curve.
